Measurements: patent US20220340983A1, “SYSTEMS AND ASSAYS FOR IDENTIFYING PU.1 INHIBITORS” (Massachustts Institute of Technology, priority 2019, published 2022)

How the values were obtained:
[1] = system: PU.1 dependent gene expression; experiment: RT-qPCR of mRNA levels in BV2 PU.1-Luciferase cells (validation round 3); assay type: cell-based, mouse; settings: 2-day treatment
[2] = system: iPS and ES-microglia; experiment: Average cell size (Vybrant DiI-positive surface area per Hoechst-positive cell) in microglia; assay type: cell-based, human; settings: A11 alone ≤20 nM
Description: Top row: Effect of a 2-day treatment with DPBS (10 μL/mL), IFNγ (25 ng/mL), TNFα (25 ng/mL), TGFβ (25 ng/mL), IL1β (25 ng/mL), LPS (25 ng/mL), ATP (100 nM), CD200 (100 ng/mL), IFNα (25 ng/mL), IL12 (5 ng/mL), CX3CL1 (100 ng/mL), CCL5 (100 ng/mL), PMA (10 ng/mL), IFNβ (10 ng/mL), IL33 (10 ng/mL), and IL4 (100 ng/mL). n=52 for DPBS, n=9 for all other inflammatory molecules, except IL33 where n=3. Bottom row: effect after co-application with A11 (20 nM). Scale bar 10 μm. […] Student's unpaired, two sided t-test, ****P≤0.0001, ***P≤0.001, **P≤0.01, *P≤0.05. […] Top row: An increase in number of cells per well with ≥2 BODIPY-positive structures was observed after a 2-day treatment with IFNγ (25 ng/mL), TNFα (25 ng/mL) and IL33 (10 ng/mL) as compared to DPBS treatment. […] Student's unpaired, two-sided t-test, ***P≤0.001, **P≤0.01, *P≤0.05. […] A 2-day treatment with IFNγ (25 ng/mL) caused increase in ATP levels that was reversed by A11 (20 nM) treatment in iPS (left panel) and ES-microglia (right panel). Student's unpaired, twosided t-test, **P≤0.01. […]
FIGS. 17A-17H show results from comparing the effects of multiple inflammatory molecules in iPS-microglia. […] Quantification based on total Vybrant DiI-positive surface area divided by number of Hoechst positive cells per field of view. […]

[3] = system: iPS and ES-microglia; experiment: ELISA for IL1β in microglia supernatant; assay type: cell-based, human
[4] = target: T1, PU.1 (Mus musculus, UniProt P17433); experiment: Luciferase assay (luminescence) in BV2 PU.1-Luciferase reporter cells; assay type: cell-based; settings: luminescence reduction in BV2 PU.1-Luciferase cells, concentration-response, Hill's equation
T1 construct: endogenous in cells; host or cells: BV2 PU.1-Luciferase (mouse microglial BV2 with a 5xLBB-luciferase reporter integrated at ROSA26)

**Q.** What does the source list for `O=S(=O)(NCc1ccncc1)c1ccc(C2CCCCC2)cc1` [Compound A11]?
**A.** mRNA levels Apoe [1]: 1.522 multiples of 1×; mRNA levels IL1β [1]: 0.418 multiples of 1×; mRNA levels Lucif. [1]: 0.376 multiples of 1×; mRNA levels Spi1 [1]: 1.001 multiples of 1×; mRNA levels Trem2 [1]: 2.051 multiples of 1×; mRNA levels Tyrobp [1]: 2.101 multiples of 1×; average cell size versus DPBS treatment [2]: no effects; supernatant IL1β levels, increase by IFNγ ([3]; 2-day IFNγ 25 ng/mL plus A11 20 nM, iPS and ES-microglia): reversed; IL1β concentration in the supernatant ([3]; A11 alone 20nM, 2-day treatment): did not affect; IC50 [4]: 2 nM
